# Reference: US8378104B2 (OSI Pharmaceuticals, LLC, priority 2010, dated 2013)
# Where a name gives a salt, the structure may show the parent alone.
# Biological target: T1, TAK1-TAB1 fusion protein (Homo sapiens, UniProt O43318)
# T1 construct: purchased Carna
# T1 sequence (O43318 with tags, fused parts or gaps limits assumed): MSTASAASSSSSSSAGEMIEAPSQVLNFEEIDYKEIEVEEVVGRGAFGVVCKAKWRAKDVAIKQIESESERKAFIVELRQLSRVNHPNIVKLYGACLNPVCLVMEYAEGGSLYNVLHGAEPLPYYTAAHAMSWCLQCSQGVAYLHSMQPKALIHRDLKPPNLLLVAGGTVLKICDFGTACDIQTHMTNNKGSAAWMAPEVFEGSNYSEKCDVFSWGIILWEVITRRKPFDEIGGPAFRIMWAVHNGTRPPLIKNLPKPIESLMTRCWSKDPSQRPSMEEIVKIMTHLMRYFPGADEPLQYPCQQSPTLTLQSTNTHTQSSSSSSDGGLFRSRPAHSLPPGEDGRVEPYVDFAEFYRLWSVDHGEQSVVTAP
# Assay: TAK1 biochemical assay (AlphaScreen, GST-MAP2K7 substrate)
# Conditions: not given
row,IC50 [nM],Structure (SMILES)
1,1000 to 10000,"Cc1c(-c2cnc(N)c3oc(-c4csc5cnccc45)cc23)cnn1C [Example 292, 4-(1,5-dimethyl-1H-pyrazol-4-yl)-2-thieno[2,3-c]pyridin-3-yl-furo[2,3-c]pyridin-7-ylamine]"
2,> 10000,"Cc1nn(C)c(C)c1-c1cnc(N)c2oc(-c3csc4cnccc34)cc12 [Example 294, 2-thieno[2,3-c]pyridin-3-yl-4-(1,3,5-trimethyl-1H-pyrazol-4-yl)-furo[2,3-c]pyridin-7-ylamine]"
3,100 to 1000,"COc1nn(C)cc1-c1cnc(N)c2oc(-c3csc4cnccc34)cc12 [Example 343, 4-(3-methoxy-1-methyl-1H-pyrazol-4-yl)-2-thieno[2,3-c]pyridin-3-yl-furo[2,3-c]pyridin-7-ylamine]"

# Same assay, conditions: TAK1-TAB1 fusion protein, GST-MAP2K7 substrate; read-out: mean TAK1 IC50 (Col. A)
row,Structure (SMILES),IC50 [nM]
1,"CC(=O)N1CCC(n2cc(-c3cnc(N)c4oc(-c5cnc6cnccn56)cc34)cn2)CC1 [Example 274, 1-(4-{4-[7-amino-2-(imidazol[1,2-a]pyrazin-3-yl)furo[2,3-c]pyridin-4-yl]-1H-pyrazol-1-yl}piperidin-1-yl)ethanone trifluoroacetic acid salt]",1000 to 10000
2,"CC(=O)N1CCC(n2cc(-c3cnc(N(C)C)c4oc(-c5csc6cnccc56)cc34)cn2)CC1 [Example 276, 1-(4-{4-[7-(dimethylamino)-2-(thieno[2,3-c]pyridin-3-yl)furo[2,3-c]pyridin-4-yl]-1H-pyrazol-1-yl}piperidin-1-yl)ethanone trifluoroacetic acid salt]",1000 to 10000
3,"Cc1n[nH]c(C)c1-c1cnc(N)c2oc(-c3csc4cnccc34)cc12 [Example 295, 4-(3,5-dimethyl-1H-pyrazol-4-yl)-2-thieno[2,3-c]pyridin-3-yl-furo[2,3-c]pyridin-7-ylamine]",1000 to 10000
4,"Nc1ncc(-c2cnn(CC(=O)O)c2)c2cc(-c3csc4cnccc34)oc12 [Example 296, [4-(7-amino-2-thieno[2,3-c]pyridin-3-yl-furo[2,3-c]pyridin-4-yl)-pyrazol-1-yl]-acetic acid]",100 to 1000
5,"Cc1nn([C@H]2CC[C@H](O)CC2)cc1-c1cnc(N)c2oc(-c3csc4cnccc34)cc12 [Example 304, 4-[4-(7-amino-2-thieno[2,3-c]pyridin-3-yl-furo[2,3-c]pyridin-4-yl)-3-methyl-pyrazol-1-yl]-cyclohexanol]",1000 to 10000
6,"Cc1c(-c2cnc(N)c3oc(-c4csc5cnccc45)cc23)cnn1[C@H]1CC[C@H](O)CC1 [Example 305, 4-[4-(7-amino-2-thieno[2,3-c]pyridin-3-yl-furo[2,3-c]pyridin-4-yl)-5-methyl-pyrazol-1-yl]-cyclohexanol]",1000 to 10000
7,"COc1cccc2cc(C=CC(=O)N3CCC(n4cc(-c5cnc(N)c6oc(-c7csc8cnccc78)cc56)cn4)CC3)oc12 [Example 333, 1-{4-[4-(7-amino-2-thieno[2,3-c]pyridin-3-yl-furo[2,3-c]pyridin-4-yl)-pyrazol-1-yl]-piperidin-1-yl}-3-(7-methoxy-benzo-furan-2-yl)-propenone]",100 to 1000
8,"COc1ccccc1NCCC(=O)N1CCC(n2cc(-c3cnc(N)c4oc(-c5cccc6cnsc56)cc34)cn2)CC1 [Example 336, 1-{4-[4-(7-amino-2-benzo[d]iso-thiazol-7-yl-furo[2,3-c]pyridin-4-yl)-pyrazol-1-yl]-piperidin-1-yl}-3-(2-methoxy-phenyl-amino)-propan-1-one]",100 to 1000
9,"CC(C)Oc1cccc(/C=C/C(=O)N2CCC(n3cc(-c4cnc(N)c5oc(-c6cccc7cnsc67)cc45)cn3)CC2)c1 [Example 337, (E)-1-{4-[4-(7-amino-2-benzo[d]isothiazol-7-yl-furo[2,3-c]pyridin-4-yl)-pyrazol-1-yl]-piperidin-1-yl}-3-(3-isopropoxy-phenyl)-propenone]",1000 to 10000
10,"Cn1cc(-c2cnc(N)c3oc(-c4csc5cnccc45)cc23)c(C#N)n1 [Example 345, 4-(7-amino-2-thieno[2,3-c]pyridin-3-yl-furo[2,3-c]pyridin-4-yl)-1-methyl-1H-pyrazole-3-carbonitrile]",> 10000

# Continued, values first:
row,IC50 [nM],Structure (SMILES)
1,1000 to 10000,"CCNc1ncc(-c2cnn(C3CCN(C(C)=O)CC3)c2)c2cc(-c3csc4cnccc34)oc12 [Example 277, 1-(4-{4-[7-(ethylamino)-2-(thieno[2,3-c]pyridin-3-yl)furo[2,3-c]pyridin-4-yl]-1H-pyrazol-1-yl}piperidin-1-yl)ethanone trifluoroacetic acid salt]"
2,100 to 1000,"CNc1ncc(-c2cnn(C3CCN(C(C)=O)CC3)c2)c2cc(-c3cccc4cnsc34)oc12 [Example 279, 1-(4-{4-[2-(1,2-benzothiazol-7-yl)-7-(methylamino)furo[2,3-c]pyridin-4-yl]-1H-pyrazol-1-yl}piperidin-1-yl)ethanone trifluoroacetate]"
3,> 10000,"CCOC(=O)[C@H]1CC[C@H](n2cc(-c3cnc(N)c4oc(-c5csc6cnccc56)cc34)c(C)n2)CC1 [Example 298, 4-[4-(7-amino-2-thieno[2,3-c]pyridin-3-yl-furo[2,3-c]pyridin-4-yl)-3-methyl-pyrazol-1-yl]-cyclohexane carboxylic acid ethyl ester]"
4,1000 to 10000,"Cc1c(-c2cnc(N)c3oc(-c4csc5cnccc45)cc23)cnn1[C@@H]1C[C@@H](O)[C@@H](O)C1 [Example 312, rel-(1R,2S,4S)-4-[4-(7-amino-2-thieno[2,3-c]pyridin-3-yl-furo[2,3-c]pyridin-4-yl)-5-methyl-pyrazol-1-yl]-cyclopentane-1,2-diol]"
5,1000 to 10000,"Cc1nn(C[C@H](O)CO)cc1-c1cnc(N)c2oc(-c3csc4cnccc34)cc12 [Example 318, (S)-3-[4-(7-amino-2-thieno[2,3-d]pyridin-3-yl-furo[2,3-d]pyridin-4-yl)-3-methyl-pyrazol-1-yl]-propane-1,2-diol]"
6,100 to 1000,"Nc1ncc(-c2cnn(CCO)c2)c2cc(-c3csc4cnccc34)oc12 [Example 319, 2-[4-(7-amino-2-thieno[2,3-d]pyridin-3-yl-furo[2,3-d]pyridin-4-yl)-pyrazol-1-yl]-ethanol]"
7,1000 to 10000,"Nc1ncc(-c2cnn(C3CCN(C(=O)CCC4CCCCC4)CC3)c2)c2cc(-c3csc4cnccc34)oc12 [Example 334, 1-{4-[4-(7-amino-2-thieno[2,3-c]pyridin-3-yl-furo[2,3-c]pyridin-4-yl)-pyrazol-1-yl]-piperidin-1-yl}-3-cyclohexyl-propan-1-one]"
8,1000 to 10000,"Nc1ncc(-c2cnn(C3CCN(C(=O)CCC4CCCC4)CC3)c2)c2cc(-c3csc4cnccc34)oc12 [Example 335, 1-{4-[4-(7-Amino-2-thieno[2,3-c]pyridin-3-yl-furo[2,3-c]pyridin-4-yl)-pyrazol-1-yl]-piperidin-1-yl}-3-cyclopentyl-propan-1-one]"
9,1000 to 10000,"Nc1ncc(-c2cnn(C3CCN(C(=O)Nc4cccc(Cc5ccccc5)c4)CC3)c2)c2cc(-c3cccc4cnsc34)oc12 [Example 339, 4-[4-(7-amino-2-benzo[d]isothiazol-7-yl-furo[2,3-c]pyridin-4-yl)-pyrazol-1-yl]-piperidine-1-carboxylic acid (3-benzyl-phenyl)-amide]"
10,100 to 1000,"COc1c(-c2cnc(N)c3oc(-c4csc5cnccc45)cc23)cnn1C [Example 344, 4-(5-methoxy-1-methyl-1H-pyrazol-4-yl)-2-thieno[2,3-c]pyridin-3-yl-furo[2,3-c]pyridin-7-ylamine]"
